We go through 21 compounds from patent US20100331348A1, “TROPANE DERIVATIVES USEFUL AS PESTICIDES” (SYNGENTA CROP PROTECTION, INC., priority 2007, published 2010).

The test system of assay [1] is Erysiphe graminis f.sp. tritici. The assay can be described thus: Erysiphe graminis f.sp. tritici (wheat powdery mildew) leaf disk assay. The assay is classed as in vivo. To be noted: Blumeria graminis, foliar, 96 h, preventive, four days after inoculation, read-out: control of fungal infection, Erysiphe graminis fsp. tritici.
Assay [2] relates to Puccinia recondita f.sp. tritici. The assay can be described thus: Puccinia recondita f.sp. tritici (wheat brown rust) leaf disk assay. To be noted: foliar, 216 h, preventive, nine days after inoculation, read-out: control of fungal infection, Puccinia recondita f.sp. tritici. The assay is classed as in vivo.

Where only a bound is given, the exact number is not on record here.

With `CCc1ncnc(N2C3CCC2CC(=NOCc2cccc(Oc4ccccc4)c2)C3)c1Cl` [Example 5.18], the pest or weed control at 200 ppm in assay [1] and in assay [2] was at least 80% throughout.

Consider `CCc1ncnc(N2C3CCC2CC(=NOCc2cccc(Cl)c2Cl)C3)c1Cl` [Example 5.59], for which the pest or weed control at 200 ppm in assay [1] and in assay [2] was at least 80% each time.

As for `CCc1ncnc(N2C3CCC2CC(=NOCc2cccc(Br)c2)C3)c1Cl` [Example 5.39], the pest or weed control at 200 ppm in assay [1] and in assay [2] was at least 80% throughout.

For `CCc1ncnc(N2C3CCC2CC(=NOCc2ccc(F)c(F)c2)C3)c1Cl` [Example 5.56], the pest or weed control at 200 ppm in assay [1] and in assay [2] was at least 80% in each case.

Regarding `Ic1ccccc1CON=C1CC2CCC(C1)N2c1ncnc2sccc12` [Example 5.201], the pest or weed control at 200 ppm in assay [1] and in assay [2] was at least 80% throughout.

In the case of `COCc1ncnc(N2[C@@H]3CC[C@H]2CC(Oc2cccc(C(F)(F)F)n2)C3)c1OC` (stereo partly drawn) [Example 2.137], the pest or weed control at 200 ppm in assay [1] and in assay [2] was at least 80% throughout.

Turning to `CCc1ncnc(N2C3CCC2CC(=NOCc2cc(F)c(F)c(F)c2)C3)c1Cl` [Example 5.67], the pest or weed control at 200 ppm in assay [1] and in assay [2] was at least 80% each time.

Turning to `CCc1ncnc(N2C3CCC2CC(=NOCc2cccc(CCl)c2)C3)c1Cl` [Example 5.45], the pest or weed control at 200 ppm in assay [1] and in assay [2] was at least 80% in each case.

As to `CCc1ncnc(N2C3CCC2CC(=NOCC2COc4ccccc4O2)C3)c1Cl` (stereo not drawn) [Example 5.93], the pest or weed control at 200 ppm in assay [1] and in assay [2] was at least 80% each time.

With `Fc1cc(CON=C2CC3CCC(C2)N3c2ncnc3sccc23)cc(F)c1F` [Example 5.208], the pest or weed control at 200 ppm in assay [1] and in assay [2] was at least 80% throughout.

As to `CCc1ncnc(N2C3CCC2CC(=NOCc2cccc(OC(F)F)c2)C3)c1Cl` [Example 5.65], the pest or weed control at 200 ppm in assay [1] and in assay [2] was at least 80% throughout.

With `c1ccc(-c2ccc(CON=C3CC4CCC(C3)N4c3ncnc4sccc34)cc2)cc1` [Example 5.175], the pest or weed control at 200 ppm in assay [1] and in assay [2] was at least 80% throughout.

Regarding `CCc1ncnc(N2C3CCC2CC(=NOCc2ccc4ccccc4n2)C3)c1Cl` [Example 5.89], the pest or weed control at 200 ppm in assay [1] and in assay [2] was at least 80% each time.

Consider `CCc1ncnc(N2C3CCC2CC(=NOCc2cc(F)cc(F)c2F)C3)c1Cl` [Example 5.80], for which the pest or weed control at 200 ppm in assay [1] and in assay [2] was at least 80% each time.

With `CCc1ncnc(N2C3CCC2CC(=NOCc2ccc(-c4ccccc4C#N)cc2)C3)c1Cl` [Example 5.58], the pest or weed control at 200 ppm in assay [1] and in assay [2] was at least 80% throughout.

For the compound `CCc1ncnc(N2C3CCC2CC(=NOCc2cc(F)cc4c2OCOC4)C3)c1Cl` [Example 5.121], the pest or weed control at 200 ppm in assay [1] and in assay [2] was at least 80% each time.

For the compound `Fc1ccc(OC2C[C@H]3CC[C@@H](C2)N3c2ncnc3sccc23)cc1F` (stereo partly drawn) [Example 1.18], the pest or weed control at 200 ppm in assay [1] and in assay [2] was at least 80% in each case.

With `CCc1ncnc(N2C3CCC2CC(=NOCc2ccc(OCc4ccccc4)cc2)C3)c1Cl` [Example 5.64], the pest or weed control at 200 ppm in assay [1] and in assay [2] was at least 80% throughout.

For the compound `Fc1c(F)c(F)c(CON=C2CC3CCC(C2)N3c2ncnc3sccc23)c(F)c1F` [Example 5.225], the pest or weed control at 200 ppm in assay [1] and in assay [2] was at least 80% each time.

Take `Fc1cc2c(c(CON=C3CC4CCC(C3)N4c3ncnc4sccc34)c1)OCOC2` [Example 5.257]: the pest or weed control at 200 ppm in assay [1] and in assay [2] was at least 80% each time.

With `CCc1ncnc(N2C3CCC2CC(=NOCc2ccccc2-c2ccccc2)C3)c1Cl` [Example 5.35], the pest or weed control at 200 ppm in assay [1] and in assay [2] was at least 80% in each case.
